Measured values from patent US9028842B2, “Compositions and methods for treatment, research and therapeutic applications for malaria” (priority 2007, dated 2015).
Where no end group is shown, it is not given here.

How the values were obtained:
P. falciparum = assay: GST-fusions loaded into resealed erythrocyte ghosts, then infection by Plasmodium falciparum; assay type: cell-based
Text: Erythrocytes were loaded with GST cargo and resealed according to previous protocols^15. Schizonts were percoll-purified to >95% purity and mixed with loaded ghosts at 2% parasitemia. Numbers of rings, trophozoites and schizonts were enumerated by a counter who was blinded to sample identity. Parasite morphology was monitored for any differences. Images of blood smears were taken by light microscopy with a Zeiss Axioskop upright microscope and Nuance spectral camera/un-mixing system (Cambridge Research and Instrumentation).

[1] = tested on: P. falciparum 3D7 infected ghosts; assay: Indirect immunofluorescence assay of parasite protein export in infected ghosts; assay type: cell-based, Plasmodium falciparum; details: 10 μM in erythrocyte cytoplasm
Procedure: Indirect immunofluorescence assay was conducted as described^27. Ghosts that were infected with 3D7 were probed with antibodies to HRPII (Santa Cruz) and MSP1 (MR4) and appropriate secondary antibodies conjugated to FITC or rhodamine. Nuclei were stained with 10 μg/mL Hoechst 33342. Images were captured using DeltaVision Deconvolution microscopy as described^10.

[2] = tested on: TVN of P. falciparum infected ghosts; assay: Visualization of tubovesicular network by BODIPY-Texas Red C5 ceramide staining; assay type: cell-based, Plasmodium falciparum; details: 10 μM in erythrocyte cytoplasm
Procedure: To visualize TVN membranes, erythrocytes or ghosts infected with indicated P. falciparum strain were washed free of serum and stained with 2.5 μM BODIPY-Texas Red C5 ceramide (N-((4-(4,4-difluoro-5-(2-thienyl)-4-bora-3a,4a-diaza-s-indacene-3-yl)phenoxy)acetyl)sphingosine, Invitrogen) for 15 min at 37° C. Nuclei were stained with 10 μg/mL Hoechst 33342. The cells were washed in RPMI 1640 three times and viewed live by DeltaVision Deconvolution microscopy as described^9.

[3] = tested on: P. falciparum infected erythrocytes expressing PfHRPII-GFP; assay: Endocytic lipid import with the lipid marker FM4-64; assay type: cell-based, Plasmodium falciparum; details: 5 μM PPMP, short-term (30 min)
Procedure: FM4-64 (N-(3-triethylammoniumpropyl)-4-(6-(4-(diethylamino)phenyl)hexatrienyl)pyridinium dibromide) is a fluorescent lipid marker that has been used to study endocytosis in eukaryotic cells^18. To visualize active uptake of FM4-64 from the erythrocyte plasma membrane during intraerythrocytic growth, trophozoite stage parasites expressing either PfHRPII-GFP or PFD0495c-GFP were incubated in the absence or presence of 5 μM dl-threo-PPMP for 30 min at 37° C. Infected erythrocytes were washed three times in PBS then stained with 16 μM FM4-64 for 30 min at 37° C. Nuclei were stained with 10 μg/mL Hoechst 33342, and cells were washed with PBS three times. Cells were imaged live with DeltaVision Deconvolution microscopy^10.

[4] = tested on: P. falciparum 3D7 and PFD0495c-GFP clones; assay: Reversibility of treatment with PPMP after 24 hr; assay type: cell-based, Plasmodium falciparum
Procedure: Synchronized ring stage parasites at 5-10% pst were incubated with 5 uM PPMP for 24 hr (day 1). Infected erythrocytes were washed with RPMI 1640 three times to remove PPMP then put back into culture. Blood smears were made at days 0, 1, 2, and 3 and stained with Giemsa. Parasites were fed fresh media every 24 hr. Rings, trophozoites and schizonts were enumerated by a counter who was blinded to sample identity. Both PFD0495c-GFP clones responded to PPMP in the same manner as 3D7. […] When PPMP was washed out, all parasites continued the cell cycle and at day 2 matured to schizonts, which formed new rings by day 3.

[5] = tested on: P. falciparum 3D7 and PFD0495c-GFP clones; details: after 36 h of treatment, previous studies; cited from earlier work
[6] = tested on: P. falciparum 3D7 ring stage parasites; assay: Transcriptional response to PPMP treatment by microarrays; assay type: cell-based, Plasmodium falciparum; details: 5 μM dl-threo-PPMP, 24 hr, relative to control trophozoites
Procedure: Ring stage parasites were treated with either 5 μM dl-threo-PPMP or vehicle ([ethanol]f=0.01%) for 24 hr and were harvested for RNA isolation. Untreated ring stage parasites were also harvested. The experimental design served to compare PPMP— to either mock-treated or ring stage transcripts. RNA was isolated according to Invitrogen (Carlsbad, Calif.) protocols using Trizol. First strand cDNA synthesis and hybridizations were performed according to previous protocols^24. Microarray slides were scanned using GenePix 4000B Scanner and analyzed with GenePix Pro 4.1. The statistical program R with the add-in package SMA (http://www. followed by stat.berkeley.edu/%7Eterry/zarray/Software/smacode.html) was used to normalize data^25,26. Only high quality features and those with signal two standard deviations above background were analyzed, leaving 4580 elements from a total of 8088 oligos. Features with a log odds ratio above zero were considered.

[7] = tested on: P. falciparum ring stage parasites; assay: Quantitative RT-PCR of PFD0495c transcript after PPMP treatment; assay type: cell-based, Plasmodium falciparum; details: 5 μM PPMP, 12 and 24 hr of treatment
Procedure: Quantitative PCR was used to confirm the array results. Parasites were synchronized by successive rounds of percoll and sorbitol. Ring stage parasites were treated with either 5 μM dl-threo-PPMP or vehicle (ethanol=0.01%) for 3, 6, 12, and 24 h. RNA was isolated using Trizol (Invitrogen) and treated with DNAse (Promega) according the manufacturer's recommendations. Integrity of the RNA was confirmed with the 2100 Bioanalyzer (Agilent). First strand cDNA synthesis was initiated by priming 5 ug RNA with 40 ug/mL oligo(dT)12-18 at 65° C. for 5 min then incubating reaction with 0.5 mM dNTPs and 200 U SuperScript reverse transcriptase (Invitrogen) for 60 min at 42° C. The reaction was inactivated by heating to 70° C. for 15 min. […]
Amplification of P. falciparum 18S ribosomal RNA (GI 160642), an endogenous control, was done in parallel (forward 5′-ACAATTGGAGGGCAAGT-′3 (SEQ ID NO:39), reverse 5′-TTGGAGCTGGAATTACC-3′ (SEQ ID NO:40)) to standardize the amount of sample in each well. […] Relative quantification was performed using the comparative method, whereby the amount of PFD0495c was normalized to the endogenous control 18S rRNA. […]

[8] = 50 μM in resealed erythrocyte ghosts

Compound: GST-PFD0495cCterm: recombinant form of the C-terminal region of PFD0495c (amino acids 795 to 833) fused to glutathione S-transferase (DLDIDDTLKFQHDQEFLNYFKRYQDFNNQLFDSFRSDDR; also: fused to glutathione S-transferase)
- effect on invasion (measured as ring formation) (P. falciparum; [8]): no significant effect
- effect on trophozoite growth (P. falciparum; [8]): inhibitory
- parasitemia on Day 3 (P. falciparum; ghosts loaded with 10 μM): 6-7%
- effect on parasite protein export [1]: no deleterious effect
- effect on tubular-TVN development [2]: disrupted

Compound: CCCCCCCCCCCCCCCC(=O)N[C@H](CN1CCOCC1)[C@H](O)c1ccccc1 (racemic) [PPMP, dl-threo-1-phenyl-2-palmitoyl-3-morpholino-1-propanol]
- internalization of FM4-64 via TVN tubules [3]: blocked
- reversibility of effects on parasite growth upon washing out drug ([4]; 5 μM PPMP 24 h, parent line and transgenic clones): completely reversible
- parasite stage after 24 incubation ([4]; 5 uM PPMP, 3D7 and both PFD0495c-GFP clones): remained at the trophozoite stage
- concentrations inhibiting 50% and 90% parasite growth [5]: low micromolar
- PFC0435w transcriptional change (down regulated) [6]: ~4 fold
- PFD0495c transcriptional change (upregulated) [6]: ~3 fold
- PFD0495c transcript level compared to vehicle control [7]: significantly up-regulated
